# According to US8063014B2, “Self-assembly of peptide-amphiphile nanofibers under physiological conditions” (Northwestern University, priority 2002, dated 2011):
# Non-standard residues stand in square brackets, D forms with d. Residues, ends and D or L forms follow the SMILES beside them. *: point of attachment. C16 alkyl = N-terminal C16 alkyl tail, CCCCCCCCCCCCCCCC*; Palmitoyl = CCCCCCCCCCCCCCCC(=O)*; pS = N[C@@H](COP(=O)(O)O)C(=O)O
# Assays:
# [1] = Self-assembly on drying onto a surface; format: physicochemical; conditions: dissolved at neutral / physiological pH (pH 8), dried, negative stain TEM
# From the text: Such a facile approach allows this novel material to be formed in a pH independent manner, as may be important in applications that are particularly sensitive to changes in pH, including the delivery of cells in conjunction with the gelling system and generally avoiding contact between tissues and materials at non-physiological pH.
# Illustrating another gelation factor of this invention, self-assembly can occur by simply taking a PA (such as PA 17, Table 2) or a combination of PAs dissolved in water at pH 8 and placing it on a surface which is allowed to dry (for example, directly on a carbon coated TEM grid). […] (See, FIG. 11.)
# [2] = Solubility, pH-dependent precipitation and gelation in water; format: physicochemical
# Description: (§1) After synthesis (see, example 10), the PA of FIG. 1 (characterized by ^1H NMR and matrix-assisted laser desorption/ionization time-of-flight mass spectrometry (MALDI-TOF MS): matrix ion [M−H]^−1=1333) was treated with dithiothreitol (DTT) at a pH of 8 to reduce all cysteine residues to free thiols. […] However, upon acidification of the solution below pH 4 the material rapidly becomes insoluble. Solutions more concentrated than 2.5 mg/ml form birefringent gels in water that are self-supporting upon inversion of the container. […] Negatives were digitized in the Umax PowerLook scanner with resolution 1200 dpi. The average thickness of the PA fibers was determined by two different procedures. First the Fourier transform of the images and following measurements of the distances between the peaks were performed in the NIH Image […] program. The second approach applied was averaging technique based on the cross-correlation method, widely used in single particle reconstruction using the EMAN […] program. For each data set 1200-1300 individual boxes were selected.
# Several PAs with basic amino acids that can self-assemble at alkaline pH and also mixed systems, in which oppositely charged PAs self-assemble at neutral pH, were prepared. For this purpose PA compounds 22-25 were prepared by standard solid phase peptide synthesis followed by alkylation with the C16 fatty acid, palmitic acid. See Table 2, FIG. 10b (PA 22) and FIGS. 10c-e (PAs 23-25). The peptides thus prepared were characterized by electrospray mass spectroscopy and found to correspond to their respective expected masses.
# Solutions of each compound of example 6 were prepared at a concentration of 0.1 mg/m1 at neutral pH.
# [3] = Mineralization of PA nanofibers with CaCl2 and Na2HPO4 on TEM grid; conditions: 30 minutes of incubation with calcium and phosphate
# Description: To investigate the mineralization properties of PA nanofibers of this invention, the material was assembled and mineralized directly on a holey carbon coated TEM grid—to allow study of the dynamics of the mineralization process while minimizing artifacts of TEM sample preparation. To prepare samples, a drop of aqueous PA (1 mg/ml) was mounted on the holey grid and the self-assembly of the PA was induced in an atmosphere of HCl vapor. The grids were immersed in aqueous iodine to oxidize the cysteine thiol groups to disulfides. After rinsing with distilled water, the PA coated grids were treated with 5 μl of 10 mM CaCl2 on one side and 5 μl of 5 mM Na2HPO4 on the other side. The two solutions are able to mix only by passing through the holes in the carbon support.
# In a second control, a PA was prepared in which phosphoserine was replaced by serine and treated as above with calcium and phosphate.
# [4] = TEM of self-assembled nanofibers (fiber formation and diameter); format: physicochemical
# Description: as §1, with “selected. […]” for “selected.”
# Samples of the peptide-amphiphiles were prepared for TEM analysis in two different ways. In some cases a small sample of the gel, prepared in bulk as described above, was smeared onto a holey carbon coated TEM grid (Quantifoil). […]
Compound,self-assembly on drying from solution onto a surface [1],pH below which the material rapidly becomes insoluble on acidification ([2]; acidification of the aqueous solution) [pH],concentration above which solutions form self-supporting birefringent gels in water ([2]; after acidification) [µg/mL],"solubility in water ([2]; pH of 8, DTT-reduced) [mg/mL]",mineral observed on the fibers by TEM [3],"fiber diameter, positively and negatively stained dried fibers ([4]; TEM, dried) [nm]","fiber diameter, cryo-TEM ([4]; native hydrated gel) [nm]"
17 ({C16 alkyl}-CCCCGGG[pS]RGD-OH; cysteine pairing not given here) [compound 17],formation of nanofibers,,,,,,
"CCCCCCCCCCCCCCCC(=O)N[C@@H](CS)C(=O)N[C@@H](CS)C(=O)N[C@@H](CS)C(=O)N[C@@H](CS)C(=O)NCC(=O)NCC(=O)NCC(=O)N[C@@H](COP(=O)(O)O)C(=O)N[C@@H](CCCNC(=N)N)C(=O)NCC(=O)N[C@@H](CC(=O)O)C(=O)O [PA 26, Alkyl*-C4G3S^(P)RGD-COOH] (Palmitoyl-CCCCGGG[pS]RGD-OH)",,< 4,> 2500,> 50,heavy crystallization,6.0±1,7.6±1
